Results from patent publication US10597378B2 (priority 2017, dated 2020).
Like-named read-outs stand apart in the source and are kept apart here.

Key:
MOR [1] = target: T1, MOR (Homo sapiens, UniProt P35372); type: cell-based; design: host or cells: CHO-K1 (CHO-K1-MOR)
B6 mice [2] = assay: Respiratory function test; conditions: acute, equi-antinociceptive doses, 10-60 min
[3] = test system: melanoma cell-implanted B6 mice; assay: Cancer-induced pain, cold allodynia (acetone drop test); type: in vivo, mouse; conditions: PID18, 30 min after treatment
Protocol: In cancer-induced pain model, cold allodynia in mice was assessed by using the acetone test. Absolute acetone (100%) in a volume of 5 μL was placed on the base of the paw in mice. […]
The cold allodynia was tested using acetone drop test and mechanical allodynia was measured using the Von Frey test to examine the antinociceptive effects of each drug treatment.

B6 mice [4] = assay: Tail-clip test (mechanical pain); type: in vivo, mouse; conditions: wildtype B6 mice
Protocol: Each B6 mouse was placed in an acrylic box (10 cm in diameter, 30 cm high) and allowed to acclimate for 5 min before testing, and then a clip was applied 1-cm from the base of the tail. The latency to bite or grasp the clip was measured during the clip was applied to the tail. […] Regardless of the response to 20 s, a cut off time was set to avoid tissue damage.

mice [5] = assay: Conditioned place preference (CPP) test, reinstatement of morphine CPP; conditions: challenge on reinstatement day (Day 21)
[6] = test system: wild-type C57BL/6 (B6) mice; assay: Tail flick test (acute thermal pain); type: in vivo, mouse
MOR [7] = target: T1, MOR; assay: cell-based; design: expressed in transfected cells; host or cells: CHO-K1/MOR/Ga15 cells; conditions: read-out: FLIPR Ca2+ EC50
Protocol: In an exemplary in vitro assay for identifying MOR agonists, cells that express a MOR are treated with a test compound in a cellular calcium fluorescent assay and calcium fluorescence intensity is then measured to determine whether the MOR is activated. A test compound is identified as a MOR agonist if the MOR is activated.
EC50 herein refers to the concentration of a compound that induces a response halfway between the baseline and the maximum after a specified exposure time. AUC refers to the area under the response curve, an indication of the compound's capability of activating a MOR.
One day before the assay, CORNING® black with clear flat bottom 96-well assay plates were coated with a 0.1 mg/mL Poly-L-Lysine solution. CHO-K1/MOR/Ga15 cells were suspended in the F12 medium and plated at a density of about 8×10^4 cells/well in […] medium. Cells were incubated in a humidified atmosphere of 10% CO2 at 37° C. overnight so as to reach an 80-90% confluent cell monolayer before the assay. On the day of the assay, 150 μL medium/well was removed from plate. […] Compounds and other reagents were dissolved in the assay buffer. […] The [Ca^2+]i fluorescence was measured up to 90 s after agonist injection.

human NOP receptor = target: T2, human NOP receptor (Homo sapiens, UniProt P41146); assay: cAMP assay in CHO-K1 cells expressing human NOP (CHO-K1-NOP); type: cell-based; conditions: read-out: EC50 in decreasing the cAMP level
T2 construct: expressed in transfected cells; host or cells: CHO-K1 (CHO-K1-NOP)
T2 sequence (P41146 whole entry): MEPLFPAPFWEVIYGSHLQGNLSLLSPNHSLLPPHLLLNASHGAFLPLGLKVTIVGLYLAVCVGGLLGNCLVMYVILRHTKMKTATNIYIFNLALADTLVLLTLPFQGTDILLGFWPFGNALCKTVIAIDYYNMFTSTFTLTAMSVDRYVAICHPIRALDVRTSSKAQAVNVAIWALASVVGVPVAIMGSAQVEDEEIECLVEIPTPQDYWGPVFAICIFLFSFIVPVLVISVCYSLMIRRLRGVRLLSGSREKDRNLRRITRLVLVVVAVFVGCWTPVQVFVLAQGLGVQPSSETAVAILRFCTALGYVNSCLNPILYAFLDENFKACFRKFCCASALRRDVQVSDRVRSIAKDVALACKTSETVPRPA
Description: In an exemplary in vitro assay for identifying NOP agonists, cells are engineered to overexpress NOP and are designed to detect changes in intracellular cAMP levels in response to agonist stimulation of the receptor. The enzyme donor-cAMP complex complements with the acceptor and forms an active enzyme. The active enzyme subsequently hydrolyzes a substrate to produce a chemiluminescent signal that is directly proportional to the amount of cAMP in the cells. These cells have thus been modified to work in an agonist mode.
(§1) Cells (72,000 per well) were plated in 100 μl/well of DMEM in 96-well solid-bottom white plates (GIBCO) and 50 μl/well of drug in HBSS in the presence of forskolin and 3-isobutyl-1-methylxanthine at final concentrations of 1 μM and 500 μM, respectively. After 30 min of incubation at room temperature, the concentration of cyclic adenosine monophosphate was determined using a LANCE Ultra cAMP Assay kit (PerkinElmer).
It was measured using the PathHunter enzyme complementation assay in CHO-K1 cells expressing human NOP (CHO-K1-NOP).

myc-tagged human MOR = target: T3, myc-tagged human MOR (Homo sapiens, UniProt P35372); assay: cell-based
T3 construct: myc; host or cells: mouse pituitary AtT-20 cells
T3 sequence (P35372 whole entry): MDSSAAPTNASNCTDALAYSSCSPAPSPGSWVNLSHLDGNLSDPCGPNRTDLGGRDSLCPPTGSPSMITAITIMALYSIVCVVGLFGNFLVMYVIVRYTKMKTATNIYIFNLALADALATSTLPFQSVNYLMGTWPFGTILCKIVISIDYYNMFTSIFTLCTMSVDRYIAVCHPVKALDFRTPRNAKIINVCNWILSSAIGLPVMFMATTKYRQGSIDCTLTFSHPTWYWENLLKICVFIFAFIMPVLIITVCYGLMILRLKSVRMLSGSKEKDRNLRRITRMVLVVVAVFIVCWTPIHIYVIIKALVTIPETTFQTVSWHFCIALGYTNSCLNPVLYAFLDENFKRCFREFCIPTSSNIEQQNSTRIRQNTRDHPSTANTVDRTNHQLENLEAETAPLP

mice [8] = assay: Tolerance and cross-tolerance, tail-flick test after 5 days twice-daily treatment; type: in vivo, mouse; conditions: day 6, equianalgesic dose
MOR [9] = target: T1, MOR; assay: cell-based; design: host or cells: CHO-K1 (CHO-K1-MOR)
Protocol: The PathHunter G protein-coupled receptor β-arrestin-2 assay (DiscoveRx) was performed according to the manufacturer's protocol. Briefly, when β-arrestin-2 translocates to the active receptor, complementary β-galactosidase fragments fused to the receptor and β-arrestin-2 interact to form a functional enzyme, which can be detected by chemiluminescence.
Cells (5,000 per well) were then seeded in black 384-well assay plates with a CP2 reagent (DiscoveRx) and incubated for 24 h before running the assay. After each treatment, cells were incubated at room temperature for 1.5 h, followed by the addition of 8 μl of the PathHunter Detection reagent (DiscoveRx) and incubated for 1 h. Luminescence was detected using a Victor 2 plate reader. Studies were performed on the same day and the same passage of cells was used to ensure accurate comparisons of data.
Opioid receptors have been reported to couple to G protein-independent β-arrestin-2-mediated pathways. […] The potency of the above three molecules in a β-arrestin-2 recruitment assay (PathHunter), which was based on enzyme complementation in Chinese hamster ovary (CHO)-K1 cells expressing human MOR (CHO-K1-MOR), was further examined.

human mu-opioid receptor = target: T4, human mu-opioid receptor (Homo sapiens, UniProt P35372); assay: cell-based; type: cell-based
T4 construct: expressed in transfected cells; host or cells: HEK-293 (HEK-MOR), kept under G418
T4 sequence (P35372 whole entry): as above
Protocol: as §1
As MOR belongs to the GPCR family, activation of MOR leads to a decrease in intracellular cAMP level.

B6 mice [10] = assay: Cardiovascular function test (tail cuff plethysmography); conditions: acute, equi-antinociceptive doses

T1 sequence (P35372 whole entry): as above

`CN1CCc2ccccc2C1CNC(=O)c1ccc(Cl)c(Cl)c1` (stereo not shown) [Compound 67, 3,4-Dichloro-N-[(2-methyl-1,2,3,4-tetrahydro-1-isoquinolinyl)methyl]benzamide] was tested, and the MOR internalization (MOR [1]) was “approximately two-fold that of the maximal responses of morphine”, the respiratory frequency (B6 mice [2]) was “kept recovery of respiratory frequency after 30 min” and the “licking and shaking frequency” value [3] was “less than that of morphine”. The “antinociception of mechanical pain” value (B6 mice [4]) was “higher antinociceptive effect with mechanical stimuli than morphine”, the “reinstatement of morphine CPP” value (mice [5]) was “not Compound 67” and the ED50 ([6]; Mus musculus, sc, single subcutaneous injection, read-out: ED50 of antinociception) was 0.78 mg/kg. The “time at which analgesic effects were exerted after acute injection” value ([6]; equi-antinociceptive doses, B6 mice) was 10 min, the “antinociception (% of MPE, AUC)” value ([6]; single dose subcutaneous injection, 30-120 min) was “produced equi-antinociceptive effects at doses of 0.6-1.8 mg/kg” and the EC50 (MOR [7]) was 10 nM. For the same compound, the EC50 (human NOP receptor) was 2.2 nM, the EC50 (myc-tagged human MOR) was 59.9 nM and the “Emax of membrane potential hyperpolarization” value (myc-tagged human MOR) was “slightly higher than that of morphine”. The “antinociceptive effects on challenge in morphine-tolerant mice” value (mice [8]) was “significant increase in antinociceptive effects”, the EC50 (MOR [9]) was 1900 nM and the “Emax of β-arrestin recruitment relative to morphine” value (MOR [9]) was 3 fold. For the same compound, the “β-arrestin recruitment, comparison” value (MOR [9]) was “more β-arrestin recruitment than that in morphine but induced less β-arrestin recruitment than Met-5”, the EC50 (human mu-opioid receptor) was 0.63 nM and the cAMP production (human mu-opioid receptor) was “significantly decreased cAMP production”. For the same compound, the cardiovascular function (B6 mice [10]) was “minimal effect on cardiovascular function”.
